In US11076595B2, “1-(n,n-disubstituted carbamoyl) 4-(substituted sulfonyl)triazolin-5-one derivative, 4-(n,n-disubstituted carbamoyl) 1-(substituted sulfonyl)triazolin-5-one derivative, and herbicide containing said derivative as active ingredient” (HOKKO CHEMICAL INDUSTRY CO., LTD., priority 2017, dated 2021):

Columns and labels:
Format in all cases: in vivo
Echinochloa crus-galli [1] = assay: Test Example 1: herbicidal effect test by soil treatment in paddy field; settings: 120 g/10a, paddy soil treatment just after sowing, 14 days after treatment
In short: (§1)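 Paddy soil in flooded pots (~3 cm water), sown with 30 seeds per species at 0–1 cm depth, kept in a greenhouse. Water-diluted emulsifiable concentrate applied dropwise right after sowing at 120 g active ingredient per 10 are. Weed suppression (%) from dry weight vs untreated pots after 14 days, two replicates.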

Lindernia pyxidaria [2] = assay: as above; settings: 120 g/10a, paddy soil treatment just after sowing, 14 days after treatment
In short: as §1

Monochoria vaginalis [3] = assay: as above; settings: 120 g/10a, paddy soil treatment just after sowing, 14 days after treatment
In short: as §1

Scirpus juncoides [4] = assay: as above; settings: 120 g/10a, paddy soil treatment just after sowing, 14 days after treatment
In short: as §1

Echinochloa crus-galli [5] = assay: Test Example 2: herbicidal effect test by treatment during growing period in paddy field; settings: treatment 7 days after sowing, 120 g/10a, evaluated 14 days after treatment
In short: (§2)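 Read-out is weed suppression (%), 1 − mean dry weight treated/untreated ×100, taken 14 days after treatment with duplicate plots. Treatment: water-diluted emulsifiable concentrate added dropwise to flooded paddy-soil pots 7 days post-sowing at 120 g active ingredient per 10 are.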

Lindernia pyxidaria [6] = assay: as above; settings: treatment 7 days after sowing, 120 g/10a, evaluated 14 days after treatment
In short: as §2

Monochoria vaginalis [7] = assay: as above; settings: treatment 7 days after sowing, 120 g/10a, evaluated 14 days after treatment
In short: as §2

Scirpus juncoides [8] = assay: as above; settings: treatment 7 days after sowing, 120 g/10a, evaluated 14 days after treatment
In short: as §2

Amaranthus viridis [9] = assay: Test Example 3: herbicidal effect test by soil treatment in upland field; settings: upland field soil treatment 1 day after sowing; 120 g/10a; evaluated 14 days after treatment
In short: (§3)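 Pre-emergence soil spray applied one day after sowing 20 seeds of each weed into surface soil, dosed at 120 g a.i. per 10 are in 100 L water per 10 are. After 14 days, plants weighed dry; suppression (%) calculated against untreated plots, duplicate plots per concentration.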

Chenopodium album [10] = assay: as above; settings: upland field soil treatment 1 day after sowing; 120 g/10a; evaluated 14 days after treatment
In short: as §3

Echinochloa crus-galli [11] = assay: as above; settings: upland field soil treatment 1 day after sowing; 120 g/10a; evaluated 14 days after treatment
In short: as §3

crabgrass [12] = assay: as above; settings: upland field soil treatment 1 day after sowing; 120 g/10a; evaluated 14 days after treatment
In short: as §3

Amaranthus viridis [13] = assay: Test Example 4: herbicidal effect test by foliage treatment in upland field; settings: upland field foliage treatment 7 days after sowing; 120 g/10a; evaluated 14 days after treatment
In short: (§4)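 Weeds were sown in alluvial field soil, 20 seeds per species, and sprayed 7 days after sowing with water-diluted emulsifiable concentrate at 100 liter per 10 are, equal to 120 g active ingredient per 10 are. Suppression was scored 14 days after treatment from dry weight relative to untreated plots.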

Chenopodium album [14] = assay: as above; settings: upland field foliage treatment 7 days after sowing; 120 g/10a; evaluated 14 days after treatment
In short: as §4

Echinochloa crus-galli [15] = assay: as above; settings: upland field foliage treatment 7 days after sowing; 120 g/10a; evaluated 14 days after treatment
In short: as §4

crabgrass [16] = assay: as above; settings: upland field foliage treatment 7 days after sowing; 120 g/10a; evaluated 14 days after treatment
In short: as §4

Row | SMILES | weed suppression rate, Echinochloa crus-galli (Echinochloa crus-galli [1]) | weed suppression rate, Lindemia pyxidaria (Lindernia pyxidaria [2]) | weed suppression rate, Monochoria vaginalis (Monochoria vaginalis [3]) | weed suppression rate, Scirpus juncoides (Scirpus juncoides [4]) | weed suppression rate, Echinochloa crus-galli (Echinochloa crus-galli [5]) | weed suppression rate, Lindemia pyxidaria (Lindernia pyxidaria [6]) | weed suppression rate, Monochoria vaginalis (Monochoria vaginalis [7]) | weed suppression rate, Scirpus juncoides (Scirpus juncoides [8]) | herbicidal effect (weed suppression rate), Amaranthus viridis (Amaranthus viridis [9]) | herbicidal effect (weed suppression rate), Chenopodium album (Chenopodium album [10]) | herbicidal effect (weed suppression rate), Echinochloa crus-galli (Echinochloa crus-galli [11]) | herbicidal effect (weed suppression rate), Crabgrass (crabgrass [12]) | herbicidal effect (weed suppression rate), Amaranthus viridis (Amaranthus viridis [13]) | herbicidal effect (weed suppression rate), Chenopodium album (Chenopodium album [14]) | herbicidal effect (weed suppression rate), Echinochloa crus-galli (Echinochloa crus-galli [15]) | herbicidal effect (weed suppression rate), Crabgrass (crabgrass [16])
1 | CC(C)N(C(=O)n1ncn(S(=O)(=O)C2CC2)c1=O)c1ccc(F)c(F)c1F [Compound 1-203] | 100% | 100% | 90% | 100% | 100% | 80% | 100% | 100% | 90% | 60% | 80% | 80% | 100% | 80% | 100% | 100%
2 | Cc1cc(C)c(S(=O)(=O)n2cnn(C(=O)N(c3ccc(F)c(F)c3F)C(C)C)c2=O)c(C)c1 [Compound 1-899] | 100% | 100% | 90% | 100% | 100% | 80% | 100% | 100% | 90% | 60% | 80% | 80% | 100% | 80% | 100% | 100%
3 | CC(C)N(C(=O)n1ncn(S(=O)(=O)C2CCCCC2)c1=O)c1ccc(Cl)cc1Br [Compound 1-318] | 100% | 90% | 90% | 100% | 100% | 80% | 80% | 80% | 50% | 50% | 100% | 100% | 60% | 60% | 80% | 80%
4 | CC(C)N(C(=O)n1ncn(S(=O)(=O)C(C)C)c1=O)c1cccnc1F [Compound 1-241] | 100% | 90% | 90% | 80% | 100% | 90% | 80% | 80% | 90% | 90% | 90% | 90% | 50% | 70% | 90% | 90%
5 | CC(C)N(C(=O)n1ncn(S(=O)(=O)C(C)C)c1=O)c1ccc(Cl)cn1 [Compound 1-93] | 90% | 100% | 80% | 90% | 100% | 100% | 90% | 90% | 80% | 40% | 90% | 90% | 0% | 0% | 90% | 90%
6 | CC(C)N(C(=O)n1ncn(S(=O)(=O)C2CC2)c1=O)c1ccc(Cl)cc1F [Compound 1-215] | 100% | 100% | 100% | 100% | 100% | 100% | 100% | 100% | 80% | 80% | 80% | 80% | 60% | 60% | 90% | 90%
7 | CC(C)N(C(=O)n1ncn(S(=O)(=O)C2CCCCC2)c1=O)c1cccc(F)c1F [Compound 1-305] | 100% | 100% | 100% | 100% | 100% | 100% | 100% | 100% | 80% | 80% | 100% | 100% | 80% | 80% | 90% | 100%
8 | CC(C)N(C(=O)n1ncn(S(=O)(=O)C2CC2)c1=O)c1ccc(F)cc1Cl [Compound 1-214] | 90% | 80% | 80% | 90% | 90% | 80% | 80% | 90% | 90% | 80% | 80% | 90% | 90% | 80% | 80% | 90%
9 | Cc1ccc(N(C(=O)n2ncn(S(=O)(=O)N(C)C)c2=O)C(C)C)c(F)c1 [Compound 1-1117] | 90% | 80% | 80% | 90% | 90% | 80% | 80% | 90% | 90% | 80% | 80% | 90% | 90% | 80% | 80% | 90%
